Results: patent US5306710A, “Method for treating endotoxin shock with CRF” (Regents of the University of California, priority 1992, dated 1994)
No end group written: not given here.

Legend:
[1] = tested on: rat brain after cold injury (vascular permeability); test: Freeze (cold) injury to brain, Monastral blue vascular leakage; assay type: in vivo
From the text: An in vivo model of injury to study brain edema has been developed as a reproducible edema model, which has the features of immediate cortical damage followed by the subsequent development of brain edema. This model is described by Chan et al., Brain Research 277, pp. 329-337 (1983). The model uses rats which are anesthetized. A 2.5 cm incision is made over the sagittal suture and the bone of the right hemisphere exposed. A 60 mm^2 plate attached to a brass cup filled with dry ice-acetone mixture, with a temperature of -50° C., is applied to the rat skull for one minute. The animals are sacrificed at various intervals after the onset of cold-injury. A dye is administered intravenously before the freezing. Cortical slices are then obtained of the brain.
16 male rats were randomly divided into eight pairs and one rat in each pair received either saline or CRF (subcutaneously twice at 30 μg/kg, 30 min and 10 min before cold injury). The animals were anesthetized with sodium pentobarbital, 60 mg/kg intraperitoneally, and injected with Monastral blue, 60 mg/kg intravenously. A cold probe was applied onto the skull for […] and the brains taken out 1 hour after cold injury. The staining of brain tissues with Monastral blue, a colloidal pigment that gets trapped between the albuminal surface of the endothelial cell and the basement membrane, was proportional to the degree of vascular leakage. The results from the first pair are shown as FIG. 1.
The size of the lesion, measured as area in mm^2, and the degree of staining intensity, were quantified using an image-analysis software program called JAVA (Jandel Corporation, San Rafeal, Calif.). The stain intensity, given in arbitrary units, was internally calibrated using Monastral blue solutions (1-30 mg/ml) placed on white filter paper. Values are mean ±S. E. M.

[2] = tested on: rat brain after cold injury (brain edema); test: Freeze injury to cerebral cortex, water and sodium content as index of brain edema; assay type: in vivo; conditions: CRF 30 μg/kg s.c. 2×, tissues 3 hr after cold injury, ± S.E.M., N = 5
Method: In a second set of experiments, the brain surface, namely the cerebral cortex, was injured by freezing and the water and sodium content were measured in the cerebral cortex and in the basal ganglia, a part of the brain away from the freeze zone. The water and sodium content of the brain tissue served as an index of brain edema. After freeze injury, the water and sodium content of the cerebral cortex were evaluated relative to non-frozen tissues. CRF administered in two separate doses of 30 μg/kg subcutaneously, one dose 15 min. before the injury and the second dose 90 min. after the first dose, inhibited the two indices of brain edema.
Male SpragueDawley rats, 300-325 g, anesthetized with
ketamineacepromazine, were injected saline or CRF (30 μg/kg s.c.
2×) and injury to cerebral cortex was produced by applying a cold
probe to the skull for 1 min. Brain tissues were obtained 3 hr later and
analyzed for water and sodium content.

[3] = tested on: rat abdominal muscle after celiotomy (vascular leakage); test: Vascular leakage after celiotomy (4 cm midline incision through abdominal muscle wall), Monastral blue; assay type: in vivo; conditions: for Area / Intensity / Lesion Size: tissues 0.5 hr after surgery
Method: Experiments were conducted on male Sprague-Dawley rats 243±15 gm (S. D., Simonsen Labs., Gilroy, Calif.) anesthetized with sodium pentobarbital, 60 mg/kg i.p. Monastral blue, 60 mg/kg i.v., was injected 0.2 ml/100 g, 3 min. before a 4 cm midline incision through the abdominal muscle wall (celiotomy). Saline or CRF was administered to randomizd pairs with N=8 rats per group. The size of the lesion, measured as area in mm^2, an its light intensity, were quantified using the JAVA image-analysis software program. The light intensity, given in arbitrary units, was internally calibrated using Monastral blue solutions (1-30 mg/ml) placed on white filter paper. Values are mean ±S. E. M. FIG. 2 illustrates the respective amount of vascular permeability for one pair of rats (control and treated). Tables III and IV set out data from these experiments.
CRF: injected at various doses subcutaneously 30 min
before a 4 cm midline incision, tissues taken 0.5 hr
CRF: 30 μg/kg s.c. injected 2 hr before a 4 cm midline
incision, tissues taken 0.5 hr after surgery

[4] = Vascular leakage produced by PAF-acether injected subcutaneously into the abdomen; assay type: in vivo, rat; conditions: CRF 30 μg/kg s.c. 30 min before PAF-acether 1 μg/0.1 ml/rat s.c.; muscle removed 0.5 hr later
Method: (§1) CRF: 30 μg/kg s.c. injected 30 min before subcutaneous
(§2) injection of PAF-acether (1 μg/0.1 ml/rat) into the
(§3) abdomen; muscle removed 0.5 hr later.

[5] = tested on: PAF-acether; test: as above; assay type: in vivo, rat; conditions: CRF 30 μg/kg s.c. 30 min before PAF-acether
Method: as §1, §2, §3

[6] = tested on: rat pawskin; conditions: mediators injected into the rat pawskin; previously shown; cited from earlier work
[7] = tested on: blood pressure; conditions: prior art report; cited from earlier work
[8] = tested on: ACTH; conditions: prior art report; cited from earlier work
[9] = CRF 15 μg/kg s.c. 30 min before incision
[10] = CRF 30 μg/kg s.c. 30 min before incision
[11] = CRF 30 μg/kg s.c. 2 hr before incision
[12] = CRF 60 μg/kg s.c. 30 min before incision

## Corticotropin-Releasing Factor (SEEPPISLDLTFHLLREVLEMARAEQLAQQAHSNRKLMEII; not fully specified; ends and bridges not checked; UniProt P06850 154-194, looked up) [CRF]
[1]; eight pairs of rats, more damaged vs less damaged brain
  blinded observer's correct assignment of brains to saline or CRF group: 8 out of 8
[1]; rat, CRF 30 μg/kg s.c. twice before cold injury
  lesion size relative to that of the saline-treated group: 44%
[1]; rat, CRF 30 μg/kg s.c. twice, 30 min and 10 min before cold injury, brains taken 1 hour after injury, mean ± S.E.M.
  Intensity (stain intensity): 2.0 ± 0.05 arbitrary units
[2]; injured cerebral cortex
  SODIUM, cerebral cortex: 271 ± 8 mEg/kg dry wt
  WATER CONTENT, cerebral cortex: 77 ± 4%
[2]; non-injured basal ganglia
  SODIUM, basal ganglia: 215 ± 9 mEg/kg dry wt
  WATER CONTENT, basal ganglia: 76 ± 1%
[3]; [9]
  lesion size relative to that of the saline-treated group: 63%
  Area: 505 ± 16 mm^2
  Intensity: 2.0 ± 0.03 arbitrary units
  Lesion Size: 1031 ± 44
[3]; [10]
  lesion size relative to that of the saline-treated group: 42%
  Area: 361 ± 18 mm^2
  Intensity: 1.9 ± 0.05 arbitrary units
  Lesion Size: 676 ± 47
[3]; [11]
  lesion size relative to that of the saline-treated group: 59%
  Area: 477 ± 31 mm^2
  Intensity: 1.9 ± 0.03 arbitrary units
  Lesion Size: 919 ± 51
[3]; [12]
  lesion size relative to that of the saline-treated group: 29%
  Area: 257 ± 3 mm^2
  Intensity: 1.8 ± 0.05 arbitrary units
  Lesion Size: 468 ± 19
[4]
  Intensity: 1.4 ± 0.05
[5]
  muscle lesion size relative to that of the saline-treated control group: 44%
[6]
  effect on edema-producing properties of inflammatory mediators (serotonin, substance P, bradykinin, neurotensin, histamine): antagonize the edema-producing properties of these mediators

## oCRF: ovine (sheep) CRF, synthetic, disclosed in U.S. Pat. No. 4,415,558 (SQEPPISLDLTFHLLREVLEMTKADQLAQQAHSNRKLLDIA; not fully specified; ends and bridges not checked; UniProt P01142 148-188, looked up)
[7]
  effect on blood pressure: lower blood pressure

## sauvagine (QGPPISIDLSLELLRKMIEIEKQEKEKQQAANNRLLLDTI; not fully specified; ends and bridges not checked; UniProt P01144 1-40, looked up) [40 amino acid peptide generally similar to CRF]
[7]
  effect on blood pressure: lowering blood pressure in mammals
[8]
  effect on ACTH secretion: stimulating the secretion of ACTH and -endorphin
